# From publication PMC11364775, “Ion occupancy of the selectivity filter controls opening of a cytoplasmic gate in the K2P channel TALK-2” (Nature Communications, 2024)
# Residue numbers refer to the chain shown, from its start. “Also recorded” adds a separate entry of the source.
# Legend:
# [1] = biological target: T1, TALK-2 L264A mutant channels (Homo sapiens, UniProt Q96T54, L264A); assay: Pore blocker inhibition (dose-response, residual currents) in inside-out patches at +40 mV; type: cell-based; parameters: expressed in transfected cells; host or cells: Xenopus laevis oocytes (cRNA injection), excised inside-out patches; details: TALK-2 L264A
# T1 sequence (Q96T54 1-332 L264A): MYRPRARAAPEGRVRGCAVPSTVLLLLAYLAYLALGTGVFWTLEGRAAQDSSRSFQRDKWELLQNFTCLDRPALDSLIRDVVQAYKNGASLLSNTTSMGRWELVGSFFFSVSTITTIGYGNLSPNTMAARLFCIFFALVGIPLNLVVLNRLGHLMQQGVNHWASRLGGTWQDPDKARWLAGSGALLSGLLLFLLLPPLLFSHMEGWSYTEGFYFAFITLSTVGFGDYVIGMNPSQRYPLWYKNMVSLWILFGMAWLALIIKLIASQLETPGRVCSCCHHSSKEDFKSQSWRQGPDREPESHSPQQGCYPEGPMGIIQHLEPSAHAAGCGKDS
# Description: (§1) Data shown are the mean ± s.e.m and the number (n) of independent experiments and repeats of representative measurements with similar results is indicated in the figure.
# (§2) Electrophysiological recordings: Excised patch measurements in inside-out configuration under voltage-clamp conditions were performed at room temperature (22 – 24 °C). Patch pipettes were made from thick-walled borosilicate glass GB 200TF-8P (Science Products, Germany), had resistances of 0.2–0.5 MΩ (tip diameter of 10 - 25 µm) and filled with a pipette solution (in mM): 120 KCl, 10 HEPES and 3.6 CaCl2 (pH 7.0 - 8.5 adjusted with KOH/HCl) or 120 KCl, 10 AMPSO and 3.6 CaCl2 (pH 9.0 - 10.5 adjusted with KOH/HCl). Intracellular bath solutions and compounds were applied to the cytoplasmic side of excised patches for the various K^+ channels via a gravity flow multi-barrel pipette system. Intracellular solution had the following composition (in mM): 120 KCl, 10 HEPES, 2 EGTA and 1 Pyrophosphate (pH adjusted with KOH/HCl). In other intracellular bath solutions, K^+ was replaced by Rb^+ (pH 7.4 adjusted with RbOH/HCl). Currents were recorded with an EPC10 amplifier (HEKA electronics, Germany) and sampled at 10 kHz or higher and filtered with 3 kHz (-3 dB) or higher as appropriate for sampling rate.
# (§3) Data analysis and statistics were done using Fitmaster (HEKA electronics, version: v2x73.5, Germany), Microsoft Excel 2021 (Microsoft Corporation, USA), and Igor Pro 9 software (WaveMetrics Inc., USA). Recorded currents were analyzed from stable membrane patches at a voltage defined in the respective figure legend or with a voltage protocol as indicated in the respective figure. […] Percentage inhibition or residual currents upon blocker application for a ligand (drug or bioactive lipid) was calculated from stable currents of excised membrane patches using the following Eqs. 2 and 3:2 %inhibition=1−Iinhibited/Ibasal*100 3 Residual current=100−%inhibition where Iinhibited refers to the stable current level recorded in the presence of a given concentration of a drug or bioactive lipid and Ibasal to the measured current before ligand application.
# WT TALK-2 channels [2] = biological target: T2, WT TALK-2 channels (Homo sapiens, UniProt Q96T54); assay: as above; type: cell-based; parameters: expressed in transfected cells; host or cells: Xenopus laevis oocytes (cRNA injection), excised inside-out patches; details: for blocker inhibition upon activation by 2-APB: 2-APB pre-activated
# T2 sequence (Q96T54 1-332): T1 sequence (Q96T54 1-332 L264A) with A264L
# Description: as §1, §2, §3
# [3] = biological target: T3, WT TALK-2 channels (human K2P17.1) (Homo sapiens, UniProt Q96T54); assay: Inside-out patch-clamp, ligand activation of channel currents at +40 mV (oocytes)
# T3 sequence (Q96T54 1-332): T1 sequence (Q96T54 1-332 L264A) with A264L
# Description: Oocytes were surgically removed from anesthetized adult females, treated with type II collagenase (Sigma-Aldrich/Merck, Germany) and manually defolliculated. 50 nl of a solution containing the K^+ channel specific cRNA was injected into Dumont stage V - VI oocytes and subsequently incubated at 17 °C in a solution containing (mM): 54 NaCl, 30 KCl, 2.4 NaHCO3, 0.82 MgSO4 x 7 H2O, 0.41 CaCl2, 0.33 Ca(NO3)2 x 4 H2O and 7.5 TRIS (pH 7.4 adjusted with NaOH/HCl) for 1–7 days before use. Electrophysiological recordings: Excised patch measurements in inside-out configuration under voltage-clamp conditions were performed at room temperature (22 – 24 °C). […] Intracellular bath solutions and compounds were applied to the cytoplasmic side of excised patches for the various K^+ channels via a gravity flow multi-barrel pipette system. Intracellular solution had the following composition (in mM): 120 KCl, 10 HEPES, 2 EGTA and 1 Pyrophosphate (pH adjusted with KOH/HCl). In other intracellular bath solutions, K^+ was replaced by Rb^+ (pH 7.4 adjusted with RbOH/HCl). Currents were recorded with an EPC10 amplifier (HEKA electronics, Germany) and sampled at 10 kHz or higher and filtered with 3 kHz (-3 dB) or higher as appropriate for sampling rate.
# Recorded currents were analyzed from stable membrane patches at a voltage defined in the respective figure legend or with a voltage protocol as indicated in the respective figure. The fold activation (fold change in (tail) current amplitude) of a ligand (drug or bioactive lipid) was calculated from Eq. 1:1 Fold activationFA=Iactivated/Ibasal where Iactivated represents the stable current level in the presence of a given concentration of a respective ligand and Ibasal the measured current before ligand application. Percentage inhibition or residual currents upon blocker application for a ligand (drug or bioactive lipid) was calculated from stable currents of excised membrane patches using the following Eqs. 2 and 3:2 %inhibition=1−Iinhibited/Ibasal*100 3 Residual current=100−%inhibition where Iinhibited refers to the stable current level recorded in the presence of a given concentration of a drug or bioactive lipid and Ibasal to the measured current before ligand application. The macroscopic half-maximal concentration-inhibition relationship of a ligand was obtained using a Hill-fit for dose-response curves as depicted in Eq. 4:4 %inhibition/activation=Ibase+Imax−Ibase/1+x1/2/x^rate where base and max are the currents in the absence and presence of a respective ligand, x is the concentration of the ligand, x1/2 is the ligand concentration at which the activatory or inhibitory effect is half-maximal, rate is the Hill coefficient.
# [4] = biological target: T4, WT TREK-2 channels (human K2P10.1) (Homo sapiens, UniProt P57789); assay: Tail current deactivation kinetics with pore blocker (inside-out patch); type: cell-based; details: intracellular Rb+ without blocker
# T4 construct: expressed in transfected cells; host or cells: Xenopus laevis oocytes (cRNA injection), excised inside-out patches
# T4 sequence (P57789 1-538): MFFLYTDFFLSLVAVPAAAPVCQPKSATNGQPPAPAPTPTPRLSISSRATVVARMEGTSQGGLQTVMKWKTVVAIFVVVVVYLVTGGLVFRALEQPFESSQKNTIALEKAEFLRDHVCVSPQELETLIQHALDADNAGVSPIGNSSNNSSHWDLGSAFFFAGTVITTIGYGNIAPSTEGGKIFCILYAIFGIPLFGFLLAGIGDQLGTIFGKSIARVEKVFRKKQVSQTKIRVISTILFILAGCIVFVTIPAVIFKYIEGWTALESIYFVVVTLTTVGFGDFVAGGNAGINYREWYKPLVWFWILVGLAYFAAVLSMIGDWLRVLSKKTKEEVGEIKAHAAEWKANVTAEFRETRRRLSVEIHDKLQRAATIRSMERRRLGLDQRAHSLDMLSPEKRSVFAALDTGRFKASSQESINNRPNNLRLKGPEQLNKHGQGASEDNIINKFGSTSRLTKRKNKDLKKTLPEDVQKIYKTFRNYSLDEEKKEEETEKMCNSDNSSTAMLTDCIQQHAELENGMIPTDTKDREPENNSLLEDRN
# WT TALK-2 channels [5] = biological target: T2, WT TALK-2 channels; assay: as above; type: cell-based; parameters: expressed in transfected cells; host or cells: Xenopus laevis oocytes (cRNA injection), excised inside-out patches; details: intracellular Rb+ without blocker; step to +100 mV, repolarization to -80 mV
# Excerpt: In voltage-gated K^+ (Kv) channels, the closing of the lower gate can be prevented by the binding of blockers such as tetra-pentyl-ammonium (TPenA) in the pore cavity and, thereby, causing a slowing of the deactivation kinetics which is known as the ‘foot in the door’ effect[33],[34]. To test for such a mechanism in TALK-2, we activated the channels with a voltage step to +100 mV in the presence of intracellular Rb^+ followed by a repolarization step to -80 mV (to induce tail currents) with and without the K2P channel pore blocker TPenA. […] We hypothesize, that the two gates are strongly coupled and, therefore, opening the SF gate by depolarization should also open the lower gate, which then consequently would allow blocker (like TPenA) binding within the pore cavity (Fig. 5a cartoon). Upon repolarization, however, the bound TPenA blocker obstructs closure of the lower gate and thereby, hinders the SF from closure/inactivation (gate coupling).
# WT TALK-2 channels [6] = biological target: T2, WT TALK-2 channels; assay: Cysteine modification assay with MTS-ET, control (inside-out patch); details: basal state or activated with 2-APB or oleoyl-CoA; 1.0 mM MTS-ET
# Description: To investigate the latter, we utilized a cysteine modification assay.
# Oocytes were surgically removed from anesthetized adult females, treated with type II collagenase (Sigma-Aldrich/Merck, Germany) and manually defolliculated. 50 nl of a solution containing the K^+ channel specific cRNA was injected into Dumont stage V - VI oocytes and subsequently incubated at 17 °C in a solution containing (mM): 54 NaCl, 30 KCl, 2.4 NaHCO3, 0.82 MgSO4 x 7 H2O, 0.41 CaCl2, 0.33 Ca(NO3)2 x 4 H2O and 7.5 TRIS (pH 7.4 adjusted with NaOH/HCl) for 1–7 days before use. Electrophysiological recordings: Excised patch measurements in inside-out configuration under voltage-clamp conditions were performed at room temperature (22 – 24 °C). […] Currents were recorded with an EPC10 amplifier (HEKA electronics, Germany) and sampled at 10 kHz or higher and filtered with 3 kHz (-3 dB) or higher as appropriate for sampling rate.
# Data analysis and statistics were done using Fitmaster (HEKA electronics, version: v2x73.5, Germany), Microsoft Excel 2021 (Microsoft Corporation, USA), and Igor Pro 9 software (WaveMetrics Inc., USA). Recorded currents were analyzed from stable membrane patches at a voltage defined in the respective figure legend or with a voltage protocol as indicated in the respective figure.
smiles,measurement,setting,value
COc1ccc(CC(=O)NCc2ccccc2-c2ccccc2C(=O)NCc2ccc(F)cc2F)cc1 [A1899],Residual currents with 10 µM A1899,[1]; 10 µM A1899,41.55%
same,blocker inhibition upon activation by 2-APB,WT TALK-2 channels [2],strong inhibition
same,Residual currents with 10 µM A1899,WT TALK-2 channels [2]; TALK-2 WT + 1.0 mM 2-APB,50.53%
same,Residual currents with 10 µM A1899,WT TALK-2 channels [2]; TALK-2 WT,100.95%
same,blocker inhibition of unstimulated TALK-2 channels,WT TALK-2 channels [2],little inhibition
c1ccc(-c2nn[nH]n2)c(Nc2cccc3c2CCCC3)c1 [BL-1249],activation of TALK-2 channels by BL-1249,"[3]; 50 µM BL-1249, +40 mV",robust and reversible channel activation
same,Fold activation 50 µM BL-1249,"[3]; 50 µM, TALK-2 WT",72.38 fold
O=C(NCc1ccccc1-c1ccccc1C(=O)NCCc1ccccn1)OCc1ccccc1 [S9947],Residual currents with 50 µM S9947,[1]; 50 µM S9947,41.47%
same,blocker inhibition upon activation by 2-APB,WT TALK-2 channels [2],strong inhibition
same,Residual currents with 50 µM S9947,WT TALK-2 channels [2]; TALK-2 WT + 1.0 mM 2-APB,6.15%
same,Residual currents with 50 µM S9947,WT TALK-2 channels [2]; TALK-2 WT,98.48%
same,blocker inhibition of unstimulated TALK-2 channels,WT TALK-2 channels [2],little inhibition
[Rb+] [Rb^+],Fold Rb+ activation,[3]; TALK-2 WT,9.12 fold
same,deactivation time constant τ of tail currents,[4],17.5 ± 1.7 ms
same,deactivation time constant τ of tail currents,WT TALK-2 channels [5],3.0 ± 0.2 ms
C[N+](C)(C)CCSS(C)(=O)=O.[Cl-] [MTS-ET],effect of MTS-ET on WT TALK-2 currents,WT TALK-2 channels [6],almost no effect; also recorded: insensitive
COc1ccc(CC(=O)NCc2ccccc2-c2ccccc2C(=O)NCCc2cccnc2)cc1 [AVE0118],Residual currents with 50 µM AVE0118,[1]; 50 µM AVE0118,14.56%
same,blocker inhibition upon activation by 2-APB,WT TALK-2 channels [2],strong inhibition
same,Residual currents with 50 µM AVE0118,WT TALK-2 channels [2]; TALK-2 WT + 1.0 mM 2-APB,12.33%
same,Residual currents with 50 µM AVE0118,WT TALK-2 channels [2]; TALK-2 WT,96.7%
same,blocker inhibition of unstimulated TALK-2 channels,WT TALK-2 channels [2],little inhibition
